Measured values reported in US4199598A, “Method of treating noradrenaline dysfunction or for dopamine-β-hydroxylase inhibition” (Richter Gedeon Vegyeszeti Gyar Rt., priority 1976, dated 1980).

Assays:
dopamine-β-hydroxylase [1] = details: in words, prior art; cited from earlier work
dopamine-β-hydroxylase [2] = experiment: Noradrenaline, dopamine, serotonine and 5-hydroxy-indolylacetic acid contents of cerebrum (dopamine-β-hydroxylase inhibiting effect); type: in vivo, male Wister rats; details: Rattus norvegicus, ip
Description: (§1) The dopamine-β-hydroxylase inhibiting effects of the compounds according to the invention were examined by the following tests:
(§2) The tests were performed on male Wister rats weighing 150 to 200 g. The dopamine-β-hydroxylase inhibiting effects of the compounds were evaluated by determining the change of noradrenaline, dopamine and adrenaline levels of the cerebrum, heart, spleen and adrenal gland. The serotonine and 5-hydroxy-indolyl-acetic acid levels of the cerebrum were also determined. The measurements were performed as follows:
(§3) The animals were decapitated, the cerebrum, heart, spleen and adrenal gland were removed quickly, and the organs were frozen by placing them onto a metal sheet cooled with dry ice. The frozen organs were stored for a maximum of one night at -20° C.
(§4) Noradrenaline was determined according to the method of Shellenberger et al (Anal. Biochem., Vol. 39, p. 356, 1971), with the following modifications of the basic procedure: 0.5 ml of 0.1 molar Na-K-phosphate buffer, containing 9 g/l of EDTA-Na2, were added to 0.5 ml of the eluate, and the catecholamines (noradrenaline in the examination of heart and spleen and noradrenaline and dopamine in the examination of the cerebrum) were oxidized with 0.1 ml of a 0.1 N iodine solution in 5% potassium iodide. […] Thereafter the samples were placed for 5 minutes in a drying oven heated to 100° C., and then the samples were cooled with ice water. The fluorescence of noradrenaline was measured with an OPTON spectrophotometer at wavelengths of 390 nm (excitation) and 490 nm (emission).
Determination of the noradrenaline, dopamine, serotonine and 5-hydroxy-indolylacetic acid contents of cerebrum
The brains were homogenized in 10 parts by volume of 0.4 N perchloric acid. The homogenized mixture was stored at -20° C. overnight; thereafter it was thawed and centrifuged as described above. A sample of homogenized mixture corresponding to 0.5 g of brain was removed, the pH of the sample was adjusted to 8.0±0.1 with 0.1 molar tris-buffer of the above composition, and the sample was processed as described above for the determination of the noradrenaline content of heart and spleen, with the difference that 1.5 ml of 0.05 N perchloric acid were applied as eluting agent. 0.5 ml of the eluate were applied to determine the noradrenaline and dopamine content. The measurement was performed as described above, with the difference that samples of 0.5 ml were applied for the recording of the fluorescence of noradrenaline. The residue was placed for 50 minutes into a drying oven heated to 100° C.; thereafter the sample was cooled with ice water, and the fluorescence of dopamine was recorded at wavelengths of 325 nm (excitation) and 380 nm (emission).
In a further test series the serotonine and 5-hydroxy-indolylacetic acid contents were also determined, in addition to the determination of the noradrenaline and dopamine contents, from the same sample. In this instance the brains were homogenized in 10 ml of 75% ethanol, 0.2 ml of EDTA-Na2 and 5% of ascorbic acid were added to the homogenized mixtures, and the homogenized mixtures were maintained at -20° C. overnight. The mixtures were then centrifuged as described above, and 5.0 ml samples of the supernatant were removed. The samples were diluted with equal volumes of distilled water, and poured onto ion-exchange columns of 0.5×1.5 cm dimensions, filled with buffered Amberlite CG-30 (200 to 400 mesh). The columns were washed with 5 ml of distilled water followed with 1.0 ml of 0.2 N hydrochloric acid, and the first effluent and the aqueous wash were collected for the determination of 5-hydroxy-indolylacetic acid. Elution was continued with further 1.2 ml of 0.2 N hydrochloric acid in order to remove noradrenaline, dopamine and serotonine. Samples of 0.3 ml were used for the determinations. […]

dopamine-β-hydroxylase [3] = experiment: Noradrenaline content of heart (dopamine-β-hydroxylase inhibiting effect); type: in vivo, male Wister rats; details: Rattus norvegicus, ip, read-out: Amine level, heart NA (noradrenaline)
Description: as §1, §2, §3
(§5) Determination of the noradrenaline content of heart and spleen
(§6) The organs were weighed in frozen state and then homogenized in 5.0 ml of 0.4 N perchloric acid containing 0.05% of EDTA-Na2 and 0.1% of Na2 S2 O5. The homogenized mixtures were centrifuged as described above for the treatment of adrenal gland, the supernatants were decanted, and the pH was adjusted to 8.0±0.1 with a 0.1 molar tris buffer containing 20 g/l of NaOH and 25 g/l of EDTA-Na2. 100 mg of prepared Al2 O3 (Anton et al: J. Pharm. Ther., Vol. 138, p. 360, 1962) were added to the samples, and the mixtures were shaken mechanically for 20 minutes. Thereafter the Al2 O3 were washed with 2.10 ml of distilled water, and the noradrenaline was eluted with 1.0 ml of 0.05 N perchloric acid. 0.5 ml samples of the eluate were applied for the determination of noradrenaline.
as §4
(§7) In the tests disulfiram, 2,2-dipyridyl, bis(1-methyl-4-homopiperazinyl-thiocarbonyl)-disulfide, sodium diethyldithiocarbamate and N-phenyl-N'-(2-thiazolyl)-thiourea were used as reference substances. The values indicated in Table 1 are percentages in relation to the amine levels of the controls measured in the same tests (± Standard Error). The statistical calculations were performed on a TPA/i type computer, using Student's test.

dopamine-β-hydroxylase [4] = experiment: Noradrenaline content of spleen (dopamine-β-hydroxylase inhibiting effect); type: in vivo, male Wister rats; details: Rattus norvegicus, ip, read-out: Amine level, spleen NA (noradrenaline)
Description: as §1, §2, §3, §5, §6, §4, §7

dopamine-β-hydroxylase [5] = experiment: Adrenaline content of adrenal gland (dopamine-β-hydroxylase inhibiting effect); type: in vivo, male Wister rats; details: Rattus norvegicus, ip, read-out: Amine level, adrenal gland AD (adrenaline)
Description: as §1, §2, §3
Determination of the adrenaline content of adrenal gland
The adrenal glands were freed from fat and homogenized in 3.0 ml of ice-cold 0.4 N perchloric acid. The homogenized mixtures were centrifuged for 10 minutes at 0° C. with a speed of 3200 r.p.m. on a Janetzky K-70 type centrifuge. 0.05 ml samples were taken from the supernatant, and the adrenaline level was determined directly by the method of Laverty et al (Anal. Biochem., Vol. 22, p. 269, 1968).
as §7

in vivo = details: mouse, ip
[6] = rats, i.p., 4 hours, ± Standard Error, read-out: Amine level, cerebrum DA (dopamine)
[7] = rats, i.p., 4 hours, ± Standard Error, read-out: Amine level, cerebrum NA (noradrenaline)
[8] = rats, i.p., 4 hours, ± Standard Error, read-out: Amine level, cerebrum SE (serotonine)
[9] = rats, i.p., 200 mg/kg, 4 hours, ± Standard Error, read-out: Amine level, cerebrum DA (dopamine)
[10] = rats, i.p., 200 mg/kg, 4 hours, ± Standard Error, read-out: Amine level, cerebrum NA (noradrenaline)
[11] = rats, i.p., 200 mg/kg, 4 hours, ± Standard Error, read-out: Amine level, cerebrum SE (serotonine)
[12] = rats, i.p., 4 hours, ± Standard Error
[13] = rats, i.p., 200 mg/kg, 4 hours, ± Standard Error
[14] = 4 h, read-out: Amine level, cerebrum DA (dopamine)
[15] = 4 h, read-out: Amine level, cerebrum NA (noradrenaline)
[16] = 4 h, read-out: Amine level, cerebrum SE (serotonine)

| SMILES | response vs control in vivo at 100 mg/kg (dopamine-β-hydroxylase [2]; [6]) [%] | response vs control in vivo at 100 mg/kg (dopamine-β-hydroxylase [2]; [7]) [%] | response vs control in vivo at 100 mg/kg (dopamine-β-hydroxylase [2]; [8]) [%] | response vs control in vivo at 200 mg/kg (dopamine-β-hydroxylase [2]; [9]) [%] | response vs control in vivo at 200 mg/kg (dopamine-β-hydroxylase [2]; [10]) [%] | response vs control in vivo at 200 mg/kg (dopamine-β-hydroxylase [2]; [11]) [%] | response vs control in vivo at 100 mg/kg (dopamine-β-hydroxylase [3]; [12]) [%] | response vs control in vivo at 200 mg/kg (dopamine-β-hydroxylase [3]; [13]) [%] | response vs control in vivo at 100 mg/kg (dopamine-β-hydroxylase [4]; [12]) [%] | response vs control in vivo at 200 mg/kg (dopamine-β-hydroxylase [4]; [13]) [%] | response vs control in vivo at 100 mg/kg (dopamine-β-hydroxylase [5]; [12]) [%] | response vs control in vivo at 200 mg/kg (dopamine-β-hydroxylase [5]; [13]) [%] | further results |
| --- | --- | --- | --- | --- | --- | --- | --- | --- | --- | --- | --- | --- | --- |
| NOCc1ccccc1 [Benzyloxyamine] | – | – | – | – | – | – | – | – | – | – | – | – | dopamine-β-hydroxylase inhibiting effects (dopamine-β-hydroxylase [1]): exert dopamine-β-hydroxylase inhibiting effects; duration of activity (dopamine-β-hydroxylase [1]): exert their activities for a short period |
| COCCNC1=C(C(=S)S)CCC1 [Compound M-1, 2-(N-methoxyethyl)-amino-cyclopent-1-ene-dithiocarboxylic acid] | 107 ± 4.7 | 63.4 ± 3.6 | 116 ± 4.7 | 122 ± 6.7 | 64.2 ± 3.4 | 107 ± 2.7 | 106 ± 10.3 | 110 ± 7.4 | 77.1 ± 8.9 | 110 ± 14.1 | 106 ± 6.1 | 91.5 ± 4.7 | response vs control in vivo at 200 mg/kg (dopamine-β-hydroxylase [2]; rats, i.p., 200 mg/kg, 4 hours, ± Standard Error, read-out: Level, cerebrum 5-HIAA (5-hydroxy-indolylacetic acid)): 141 ± 12.3%; LD50 (in vivo): ~400 mg/kg |
| C=CCNC1=C(C(=S)S)CCC1 [Compound M-2, 2-(N-allyl)-amino-cyclopent-1-ene-dithiocarboxylic acid] | 108 ± 2.9 | 78.6 ± 3.3 | 118 ± 5.7 | 119 ± 7 | 71.1 ± 3.9 | 109 ± 5.9 | 81.3 ± 5.1 | 123 ± 11.9 | 74.5 ± 10.2 | 89.9 ± 11 | 103 ± 7.6 | 71.9 ± 4.7 | LD50 (in vivo): ~500 mg/kg |
| CC(C)CCNC1=C(C(=S)S)CCC1 [Compound M-3, 2-(N-isoamyl)-amino-cyclopent-1-ene-dithiocarboxylic acid] | 103 ± 4.1 | 75.2 ± 1.7 | 108 ± 5.7 | 114 ± 2.7 | 68.8 ± 2.4 | 98.2 ± 3.9 | 86.9 ± 5.9 | 131 ± 4.4 | 48.2 ± 9.5 | 135 ± 17 | 86.2 ± 4.5 | 73.5 ± 2.2 | – |
| S=C(Nc1ccccc1)Nc1nccs1 [Compound U-14624, N-phenyl-N'-(2-thiazolyl)-thiourea, reference compound] | – | – | – | – | – | – | – | – | – | – | – | – | response vs control in vivo at 200 mg/kg (dopamine-β-hydroxylase [2]; [14]): 121%; response vs control in vivo at 200 mg/kg (dopamine-β-hydroxylase [2]; [15]): 31.6%; response vs control in vivo at 200 mg/kg (dopamine-β-hydroxylase [2]; [16]): 137%; response vs control in vivo at 200 mg/kg (dopamine-β-hydroxylase [2]; 4 h, read-out: Level, cerebrum 5-HIAA (5-hydroxy-indolylacetic acid)): 175%; response vs control in vivo at 200 mg/kg (dopamine-β-hydroxylase [3]; 4 h): 106%; response vs control in vivo at 200 mg/kg (dopamine-β-hydroxylase [4]; 4 h): 111%; response vs control in vivo at 200 mg/kg (dopamine-β-hydroxylase [5]; 4 h): 72% |
| CCN(CC)C(=S)S [DDC-Na, sodium diethyldithiocarbamate, reference compound] | – | – | – | – | – | – | – | – | – | – | – | – | response vs control in vivo at 400 mg/kg (dopamine-β-hydroxylase [2]; [14]): 120%; response vs control in vivo at 400 mg/kg (dopamine-β-hydroxylase [2]; [15]): 64.1% |
| CCN(CC)C(=S)SSC(=S)N(CC)CC [DS, bis(diethylthiocarbamoyl)-disulfide, reference compound] | – | – | – | – | – | – | – | – | – | – | – | – | response vs control in vivo at 200 mg/kg (dopamine-β-hydroxylase [2]; [14]): 111%; response vs control in vivo at 400 mg/kg (dopamine-β-hydroxylase [2]; [14]): 112%; response vs control in vivo at 200 mg/kg (dopamine-β-hydroxylase [2]; [15]): 22.5%; response vs control in vivo at 400 mg/kg (dopamine-β-hydroxylase [2]; [15]): 24.1%; response vs control in vivo at 200 mg/kg (dopamine-β-hydroxylase [2]; [16]): 122%; response vs control in vivo at 400 mg/kg (dopamine-β-hydroxylase [2]; [16]): 117%; response vs control in vivo at 200 mg/kg (dopamine-β-hydroxylase [3]; 4 h): 98%; response vs control in vivo at 400 mg/kg (dopamine-β-hydroxylase [3]; 4 h): 102%; response vs control in vivo at 200 mg/kg (dopamine-β-hydroxylase [5]; 4 h): 52%; response vs control in vivo at 400 mg/kg (dopamine-β-hydroxylase [5]; 4 h): 66%; dopamine-β-hydroxylase inhibiting effects (dopamine-β-hydroxylase [1]): strong dopamine-β-hydroxylase inhibiting effects |
